Results from patent US9587220B2, “Method for inducing cardiac differentiation of pluripotent stem cell” (Kyoto University, priority 2012, dated 2017).

Tests used:
[1] = system: KY02111-induced cardiomyocytes (KY-CMs); experiment: qPCR of cardiac marker and ion channel genes in KY02111-induced cardiomyocytes; format: cell-based, human; details: Days 15 and 30
Protocol: Total RNA was isolated with an RNeasy Mini Kit (QIAGEN). Genomic DNA was completely digested with DNase I (Invitrogen). Total RNA (0.5 μg) was subjected to cDNA synthesis using the SuperScript III Reverse Transcriptase (Invitrogen). qRT-PCR was performed in triplicate, using SYBER GREEN PCR Master Mix on a 7500 Real Time PCR System (Applied Biosystems). The cycling conditions were as follows: 10 min at 95° C.; 40 cycles, each consisting of 15 s at 95° C.; 1 min at 60° C. Total RNA from human adult heart tissue (BioChain) was used to evaluate the expression levels of cardiac marker genes for cardiomyocytes derived from hPSCs. All values were normalized with respect to GAPDH expression level and expressed relative to the corresponding values in human adult hearts (100%).

[2] = system: human αMHC promoter-driven EGFP transgenic monkey ESCs; experiment: αMHC promoter-driven GFP expression, cardiac differentiation of transgenic monkey ESCs (HCA); format: cell-based; details: for intensity of the GFP signal driven by αMHC promoter: comparison of chemical and proteinaceous WNT inhibitors, FIG. 3b,c; for cardiac differentiation when BIO was added: monkey ESCs and hiPSCs, with 5 μM BIO
Source text: To generate human αMHC promoter-driven EGFP-expressing monkey ESCs, the 918 bp upstream from the transcriptional starting site and the third exon just before the open reading frame were amplified from genomic DNAs of KhES-1 hESCs by PCR, using the following primer sets —forward primer, 5′- […]-3′ (SEQ ID No: 37); reverse primer, 5′- (including a SalI linker) 22 […]-3′ (SEQ ID No: 38)—and then ligated into pGEM-T Easy Vector (Promega). The HindIII/SalI fragment from the cloning vector was connected with pEGFP-1 (Clontech). The linearized αMHC-EFGP vector was introduced into CMK6.4 monkey ESCs by electroporation. Transgenic ESC clones were selectively grown with G418 (Sigma-Aldrich). The expression of EGEP was confirmed in beating colonies.
The confluent (4-5 d after passage) αMHC-GFP transgenic monkey ESCs were dissociated enzymatically by CTK solution (Non-patent literature 1), and the ESC clumps (40-100 μm in diameter) were obtained using 40 and 100 μm Cell Strainers (BD Biosciences). The ESC clumps (approximately 5.0×10^3 cells well^−1) were transferred onto 96-well plates (Greiner Bio-One, 96-well black plate, Cat. No. 655090) and incubated in cardiac differentiation medium as described in (4) below. During Days 6-14 of cardiac differentiation, 9600 compounds from the chemical library (dissolved in DMSO) were screened using 96-well plates. Sixteen and 80 wells were used for the control (0.1% DMSO) and chemical compounds (1 per well), respectively. Final concentration of the each compound was approximately 1-5 μM. Medium containing small molecules was changed every 4 d. On Day 14, GFP fluorescence of ESCs was measured by whole-plate scanning, using the Metamorph imaging system (Molecular Device). Metamorph software was used to analyze the GFP fluorescence data and calculate Fluorescence Area, Total Fluorescence Intensity, Average Fluorescence Intensity, and number of GFP-positive colonies for each well. Hit compounds were determined by the following criteria: Average Fluorescence Intensity of a well with the compound was >6 SD greater than Average Fluorescence Intensity of the control (mean of 16 wells), and Total Fluorescence Intensity for the compound was >0 SD greater than the control; or Total Fluorescence Intensity of the compound was >4 SD greater than the control, and Average Fluorescence Intensity of the compound was >0 SD greater than the control. One hundred and twenty compounds passed these criteria and were retested using 8 wells for each compound.
Confluent hESCs and hiPSCs were gently detached with CTK solution and transferred into Petri dishes (BD Biosciences) with Primate ES Cell Culture Medium (ReproCELL, Japan). Cells were held in suspension culture for 8-24 h to form aggregates. The sizes of hPSC aggregates (0.3-1 mm in diameter) are important for efficient differentiation. Following suspension culture, cell aggregates were attached to culture dishes (3-10×10^5 cells cm^−2) in cardiac differentiation medium: IMDM (Sigma), containing 20% FBS (Gibco), 1% MEM non-essential amino acid solution (Sigma), 1% Penicillin-Streptomycin (Gibco), 2 mM L-glutamine (Sigma), 0.001% 2-Mercaptoethanol (Gibco), and 0.005N NaOH, with 10 ng ml^−1 BMP4 (R&D Systems). The medium was changed to cardiac differentiation medium with 10 μM KY02111 and/or other WNT inhibitors added on Day 3 (hiPSC lines) or Day 4 (human or monkey ESC lines); XAV939 (Wako, Japan), IWP-2 (Santa Cruz Biotechnology), IWR-1 (Merck4Bioscience), IGFBP4 (R&D Systems), Dkk1 (R&D Systems) and the mixture of bFGF (R&D Systems), BMP4 (R&D Systems), VEGF (R&D Systems), DKK1 (R&D Systems), and Activin A (R&D Systems) (Non-patent literature 16). Medium was changed every 2-3 d. KY02111 and other WNT inhibitors were added until Day 9 for hiPSC lines and the monkey ESC line, or Day 14 for hESC lines. […]

SMILES	expression of ion channel genes in KY-CMs relative to adult heart tissue [1]	increase of differentiation compared to the control (GFP signal) ([2]; 10 μM, comparison of WNT inhibitors, FIG. 3b)	GFP expression level induced by N11474 and related compounds (structure-activity) ([2]; DMSO=100%)	promotion of cardiac differentiation relative to DMSO control (GFP increase ratio) ([2]; FIG. 1d)	promotion of cardiac differentiation relative to N11474 ([2]; FIG. 1d) [times]	intensity of the GFP signal driven by αMHC promoter [2]	cardiac differentiation when BIO was added [2]
COc1ccc(CCC(=O)Nc2nc3ccc(Cl)cc3s2)cc1OC [KY02111, 2-(3-(3,4-dimethoxyphenyl)propanamide)-6-chlorobenzothiazole]	equivalent to those of adult heart tissue	about 80 fold	induced the highest levels	about 73 times	7.4	most effective	not affected by BIO
Cc1ccc2nc(NC(=O)CSc3nc4c(c(=O)n3-c3ccccc3)SCC4)sc2c1 [IWP-2, reference compound]	–	–	–	–	–	increased	completely inhibited
Oc1nc(-c2ccc(C(F)(F)F)cc2)nc2c1CSCC2 [XAV939, reference compound]	–	–	–	–	–	increased	completely inhibited
